Reference: patent publication US20230310418A1, “COMPOSITIONS AND METHODS FOR TREATING CANCER OR PREVENTING, INHIBITING OR REDUCING RISK OF METASTASIS OF A CANCER” (Lixte Biotechnology, Inc., priority 2022, published 2023)
pIC50: −log10 of the molar value. Entries after “also recorded” stand apart in the source; their conditions may differ. Read-outs that look alike come from different tables or passages of the source.

Columns and labels:
SW-480 cells = assay: Stress-focused drug screen of 164 compounds with or without LB-100; type: cell-based; conditions: 2.5 µM LB-100 (sub-lethal); cell viability after three days; 15 concentrations (FIG. 2B)
Excerpt: (§1) To identify stress-targeted drugs that can be combined with LB-100 to kill cancer cells, a library of 164 compounds was built targeting the different stress responses associated with a malignant phenotype (i.e., proteotoxic stress, oxidative stress, DNA damage stress, mitotic stress, metabolic stress, and apoptosis evasion). These compounds were investigated in 15 different concentrations using a literature-based concentration range in order to obtain dose-response curves for each of these drugs.

[1] = system: RBE cholangiocarcinoma cells; assay: as above; type: cell-based; conditions: stress-focused screen with LB-100 vs control (FIG. 5A)
Excerpt: as §1

HT-29 cells = assay: as above; type: cell-based; conditions: 2.5 µM LB-100 (sub-lethal); cell viability after three days (FIG. 2C)
Excerpt: These compounds were investigated in 15 different concentrations using a literature-based concentration range in order to obtain dose-response curves for each of these drugs.

[2] = system: colorectal cancer cell lines; assay: cells
Protocol: Drug-response assays were performed in triplicate, using black-walled 384-well plates. Cells were plated with a 20% density (approximately) and incubated for approximately 24 hours to allow attachment to the plate. […] 10 µM phenylarsine oxide was used as positive control (0% cell viability) and DMSO was used as negative control (100% cell viability). 3-5 days later, culture medium was removed and resazurin was added to the plates. After 1-4 hours incubation (depending on the cell line), fluorescence (560Ex/590Em) was recorded using the EnVision (Perkin Elmer).
The effect of increasing doses of LB-100 to the Table 1 cell lines, both in short-term cell viability assays (FIG. 1A) and long-term cell proliferation assays (FIG. 1B), was analyzed. For the short-term study, cells were cultured with increasing concentrations of LB-100 for 5 days. Then the cell viability was measured using resazurin.
Adavosertib was used as the WEE1 kinase inhibitor to investigate the effect of the combination with LB-100 in the panel of CRC cells. […] Toxicity of the combination in long-term viability assays was assessed. The cells were cultured for at least ten days and the drugs were refreshed every other day. The toxicity of the single drugs in this experimental setup was assessed. […] Cells were then treated at the indicated conditions and confluence over time was measured by IncuCyte®, FIG. 3D).

[3] = system: colorectal cancer cell lines; type: cell-based; conditions: for toxicity when combined with LB-100, long-term cell proliferation: SW-480 cells, multiple concentrations, 10-14 days (FIG. 2F)
Protocol: Finally, plates were scanned and stored.
(§2) Then the cell viability was measured using resazurin.

[4] = system: pancreatic ductal adenocarcinoma (PDAC) cell lines; assay: Short-term cell viability dose-response assay (resazurin); type: cell-based; conditions: 120 h, read-out: IC50s from dose-response curves
Excerpt: (§3) The efficacy of the LB-100/adavosertib combination in the CRC cell lines encouraged further evaluation in other tumor types lacking effective treatment options. Pancreatic ductal adenocarcinomas (PDACs) are refractory to conventional therapies and the 5-year survival rates remain one of the lowest among all cancers. Similarly, despite a much lower overall incidence, cholangiocarcinomas (CCAs) share with PDACs the frequent lack of response to conventional therapies and the dismal prognosis. A panel of four PDAC cell lines and a similar one with CCA cells were assembled to assess the efficacy of LB-100 and adavosertib in these cancer types. […] To investigate the effects of the combination in the PDAC and CCA cancer cell lines systematically, the same experimental workflow used for the CRC panel was employed. First, the long-term toxicity of LB-100 and adavosertib was addressed in the PDAC and CAA cell lines (FIG. 5D and FIG. 8C). […] As observed for DiFi and RKO, the doses of adavosertib used in the synergy assays are already toxic to AspC-1, EGI, and HuCC-T1 cells (FIG. 5C, FIG. 8A, and FIG. 8B).

[5] = system: cholangiocarcinoma (CCA) cell lines; assay: as above; type: cell-based; conditions: 120 h, read-out: IC50s from dose-response curves
Excerpt: as §3

[6] = system: mitogenic signaling pathways and stress response pathways; assay: Time-course Western blots; type: cell-based; conditions: DiFi, HT-29 and SW-480 cells; vinculin control (FIG. 1C-1E)
Protocol: After the indicated culture period and drug treatment, cells were washed with cold PBS, then lysed with RIPA buffer (25 mM Tris-HCl, pH 7.6, 150 mM NaCl, 1% NP-40, 1% sodium deoxycholate, 0.1% SDS) containing Complete Protease Inhibitor cocktail and phosphatase inhibitor cocktails II and III. Samples were then centrifuged for 10 min at 15,000 x g at 4° C. and supernatant was collected. Protein concentration of the samples was normalized after performing a Bicinchoninic Acid (BCA) assay. Protein samples (denatured with DTT followed by 5 min heating at 95° C.) were then loaded in a 4-12% polyacrylamide gel. Gels were run (SDS-PAGE) for approximately 45 min at 175 volts. Proteins were transferred from the gel to a polyvinylidene fluoride (PVDF) membrane at 330 mA for 90 min. After the transfer, membranes were incubated in blocking solution (5% bovine serum albumin (BSA) in PBS with 0.1% Tween-20 (PBS-T)). Subsequently, membranes were probed with primary antibody in blocking solution (1:1000) overnight at 4° C. Membranes were then washed 3 times for 10 min with PBS-T, followed by 1 h incubation at room temperature with the secondary antibody (HRP conjugated, 1:10,000) in blocking solution. […]
as §2

## CC1(C)CCC(c2ccc(Cl)cc2)=C(CN2CCN(c3ccc(C(=O)NS(=O)(=O)c4ccc(N[C@H](CCN5CCOCC5)CSc5ccccc5)c(S(=O)(=O)C(F)(F)F)c4)cc3)CC2)C1 [navitoclax]
SW-480 cells
  toxicity in the presence of LB-100 vs control (normalized AUC): increased in the presence of LB-100

## Cn1cc(-c2cnn3c(N)c(Br)c([C@@H]4CCCNC4)nc23)cn1 [SCH-900776]
[1]
  increased drug efficacy in the presence of LB-100 (normalized AUC): among the top 5% in increased drug efficacy
HT-29 cells
  toxicity in the presence of LB-100 vs control (normalized AUC): increased toxicity

## CCN(CC)CCOc1ccc(Nc2ncc3cc(-c4c(Cl)cccc4Cl)c(=O)n(C)c3n2)cc1 [PD0166285]
SW-480 cells
  toxicity in the presence of LB-100 vs control (normalized AUC): among the bottom 5% normalized AUCs

## N#Cc1cnc(Nc2cc(NC[C@H]3CNCCO3)c(C(F)(F)F)cn2)cn1 [CCT-245737]
HT-29 cells
  toxicity in the presence of LB-100 vs control (normalized AUC): increased toxicity

## N[C@@H]1CCCN(c2c(Br)cnc3[nH]cc(NC(=O)C4CC4)c23)C1 [GDC-0575]
SW-480 cells
  toxicity in the presence of LB-100 vs control (normalized AUC): among the bottom 5% normalized AUCs
[1]
  increased drug efficacy in the presence of LB-100 (normalized AUC): among the top 5% in increased drug efficacy
HT-29 cells
  toxicity in the presence of LB-100 vs control (normalized AUC): LB-100 increased the toxicity

## C=CCn1c(=O)c2cnc(Nc3ccc(N4CCN(C)CC4)cc3)nc2n1-c1cccc(C(C)(C)O)n1 [adavosertib]
[2]; 120 h, read-out: IC50s from dose-response curves
  pIC50: 6.00 to 6.74
[3]; DLD1, HCT-116 and SW-480 cells (FIG. 3C)
  tolerance to single drug, long-term viability: largely tolerant to up to 500 nM
[3]
  toxicity when combined with LB-100, long-term cell proliferation: increased toxicity
SW-480 cells
  toxicity in the presence of LB-100 vs control (normalized AUC): among the bottom 5% normalized AUCs
[1]
  increased drug efficacy in the presence of LB-100 (normalized AUC): among the top 5% in increased drug efficacy
[4]; range across four PDAC cell lines, 5 days, resazurin (FIG. 8A, 8B)
  pIC50: 5.77 to 6.52
[5]; range across CCA cell lines, 5 days, resazurin (FIG. 5C)
  pIC50: 6.43 to 7.00
HT-29 cells
  toxicity in the presence of LB-100 vs control (normalized AUC): LB-100 increased the toxicity

## CN1CCN(C(=O)[C@@H]2[C@H](C(=O)O)[C@H]3CC[C@@H]2O3)CC1 (racemic) [LB-100]
[2]
  cytotoxicity, short-term cell viability: moderate toxicity in the lower micro molar range
[3]
  cytotoxicity, long-term cell proliferation: moderate toxicity in the lower micro molar range
[4]
  pIC50: ≤ 5.49
[5]
  pIC50: ≤ 5.33
[6]
  activation of mitogenic signaling and stress response pathways: activates mitogenic signaling pathways and engages stress response pathways

## CNCc1ccc(-c2cc(-c3nc(-c4ccc(S(=O)(=O)C(C)C)cc4)cnc3N)on2)cc1 [berzosertib]
[1]
  increased drug efficacy in the presence of LB-100 (normalized AUC): among the top 5% in increased drug efficacy

## Cc1cnc(NC(=O)Nc2cc(Br)c(C)cc2OC[C@@H]2CNCCO2)cn1 [rabusertib]
SW-480 cells
  toxicity in the presence of LB-100 vs control (normalized AUC): among the bottom 5% normalized AUCs; also recorded: increased toxicity
[1]
  increased drug efficacy in the presence of LB-100 (normalized AUC): among the top 5% in increased drug efficacy

## CN(C)CC#Cc1ccc(OCCCc2sc(N3CCc4cccc(C(=O)Nc5nc6ccccc6s5)c4C3)nc2C(=O)O)c(F)c1 [Compound A-1155463]
[3]
  toxicity when combined with LB-100, long-term cell proliferation: increased toxicity
SW-480 cells
  toxicity in the presence of LB-100 vs control (normalized AUC): increased in the presence of LB-100

## COc1cccc(OCCCN)c1-c1cc(Nc2cnc(C#N)cn2)n[nH]1 [prexasertib]
[3]
  toxicity when combined with LB-100, long-term cell proliferation: increased toxicity
SW-480 cells
  toxicity in the presence of LB-100 vs control (normalized AUC): among the bottom 5% normalized AUCs; also recorded: increased toxicity
[1]
  increased drug efficacy in the presence of LB-100 (normalized AUC): among the top 5% in increased drug efficacy
